Measurements reported in patent US11744830B2, “Ameliorative agent for cytokine release syndrome and so on” (TORII PHARMACEUTICAL CO., LTD., priority 2018, dated 2023).
Where a name gives a salt, the structure may show the parent alone.

Key:
Type in all cases: cell-based, human
[1] = test system: TNF-α production from CD8^+ T cells; assay: T-cell stimulation bead-induced TNF-α production in CD8^+ T cells; conditions: CD3/CD28 stimulation, 3 days
Protocol: Cryopreserved PBMCs were quickly thawed in a 37° C. thermostat and added to a tube containing medium. After centrifugation (at room temperature at 300 g for 10 minutes) to remove the supernatant, the cells were suspended in the medium, a portion of which was then mixed with a trypan blue solution to count the number of viable cells. The cell suspension was centrifuged (at room temperature at 300 g for 10 minutes) to remove the supernatant, followed by addition of MACS Buffer in a volume of 80 μL per 1×10^7 cells to suspend the cells, to which Human CD8 MicroBeads (20 μL) were further added. After being allowed to stand on ice for 15 minutes, the cell suspension was diluted with MACS Buffer (2 mL) and centrifuged (at room temperature at 300 g for 10 minutes) to remove the supernatant.
MACS Buffer (500 μL) was added to the tube, and the cells were suspended and then applied to a separatory column to separate CD8^+ cells. The CD8^+ cell fraction was diluted to 15 mL with the medium and then centrifuged (at room temperature at 300 g for 10 minutes). The supernatant was removed and the cells were suspended in the medium (1 mL), followed by counting the number of viable cells. The cell suspension adjusted with the medium to 1×10^6 cells/mL was seeded in a 96-well plate in a volume of 100 μL/well (1×10^5 cells/well) and allowed to stand in a CO2 incubator for 1 to 2 hours.
The culture supernatants collected in 1.2.1 were quantified for TNF-α using Human TNF-α DuoSet ELISA.

[2] = test system: OPN production from CD14^+ cells; assay: LPS stimulation-induced OPN production in CD14^+ cells; conditions: for IC50: Homo sapiens, 72 h, LPS 500 ng/mL, 3 days
Protocol: Cryopreserved PBMCs were quickly thawed in a 37° C. thermostat and added to a tube containing medium. After centrifugation (at room temperature at 300 g for 10 minutes) to remove the supernatant, the cells were suspended again in the medium, followed by counting the number of viable cells. The cell suspension was centrifuged (at room temperature at 300 g for 10 minutes) to remove the supernatant, followed by addition of MACS Buffer to suspend the cells, to which Human CD14 MicroBeads were further added. After being allowed to stand on ice for 15 minutes, the cell suspension was diluted with MACS Buffer and centrifuged (at room temperature at 300 g for 10 minutes) to remove the supernatant. MACS Buffer was added to the tube, and the cells were suspended and then applied to a separatory column to separate CD14^+ cells. The CD14^+ cell fraction was diluted with the medium and then centrifuged (at room temperature at 300 g for 10 minutes). The supernatant was removed and the cells were suspended in the medium (1 mL), followed by counting the number of viable cells. The cell suspension was adjusted with the medium to 2.4×10^5 or 3×10^5 cells/mL and seeded in a 96-well plate (2.4×10^4 cells/well), which was then allowed to stand in a CO2 incubator for 1 to 2 hours.
The collected culture supernatants were quantified for OPN using Human OPN DuoSet ELISA.

[3] = test system: IFN-γ production from PBMCs; assay: T-cell stimulation bead- and LPS stimulation-induced CRS toxicity evaluation system in PBMCs: IFN-γ; conditions: for IC50: Homo sapiens, PBMC, 72 h, PBMCs, CD3/CD28 + LPS, 3 days
Protocol: Cryopreserved PBMCs were quickly thawed in a 37° C. thermostat and added to a tube containing medium. After centrifugation (at room temperature at 300 g for 10 minutes) to remove the supernatant, the cells were suspended again in the medium (10 mL), followed by counting the number of viable cells. After centrifugation (at room temperature at 300 g for 10 minutes) to remove the supernatant, the medium was added to suspend the cells at 1×10^6 cells/mL. This cell suspension was seeded in a 96-well plate in a volume of 100 μl/well (1×10^5 cells/well) and allowed to stand in a CO2 incubator for 1 to 2 hours.
The cells were cultured in a CO2 incubator for 3 days to collect the culture supernatants.
The collected culture supernatants were quantified for IFN-γ and IL-6 using Human IFN-γ DuoSet ELISA and Human IL-6 DuoSet ELISA.

[4] = test system: killer activity of CAR-T cells; assay: Killer activity of CAR-T cells (CAR-T cells, target cells and CD14^+ cells, luciferase); conditions: 2 days
Text: FMC63 scFv, the hinge, transmembrane and cytoplasmic domains of CD28 and the cytoplasmic domain of CD3-ζ were used to construct anti-CD19 CAR on the basis of the method of Kochenderfer, et al.^15). The sequence was obtained from GenBank (HM852952) and an IDT codon optimization tool (http://sg.igtdna.com/CodonOpt) was used to remove BamHI recognition sequences within FMC63. The optimized FMC63-28z sequence was chemically synthesized and amplified by polymerase chain reaction (PCR) with the following primer set.
The PCR product was inserted into the multicloning site (EcoRI and BamHI) of lentivirus plasmid CSII-EF-MCS-2A-eGFP by using an In-Fusion HD cloning kit to obtain CSII-EF-FMC63-28z-2A-eGFP. To prepare a lentivirus vector, CSII-EF-FMC63-28z-2A-eGFP and a packaging plasmid (pMDLg/p.RRE, pRSV-rev and pMD.G) were co-transfected into Lenti-X293T cells. The prepared lentivirus vector was infected into peripheral blood mononuclear cells stimulated with anti-CD3 antibody, anti-CD28 antibody and IL-2, followed by FACS sorting to obtain a CD3-positive and eGFP-positive fraction as CAR-T cells.
On the basis of the method of Kochenderfer, et al.^15), the open reading frame of human CD19 was synthesized and amplified by PCR with the following primers. […]
Subsequently, luciferase activity was determined by detection of emission intensity with an EnSpire 2300.

TNF-α production = assay: CRS toxicity evaluation system using CAR-T cells: TNF-α; conditions: for IC50: Homo sapiens, Monocyte, CAR-T cells, target cells and monocytes, 72 hours
Protocol: The supernatants were collected at 72 hours after the initiation of culture, and various cytokines in each supernatant were measured by FACS multiplex assay.

Row | SMILES | IC50 ([1]; dihydrochloride) | IC50 ([1]; Homo sapiens, T-cell, 72 h) | IC50 [2] | IC50 [3] | effect on the killer activity of CAR-T cells [4] | IC50 (TNF-α production) | IC50 [1] | suppressive effect on OPN production ([2]; LPS) | suppression of IFN-γ production versus IL-6 production ([3]; PBMCs co-stimulated with T-cell stimulation beads and LPS) | suppressive effect on TNF-α (TNF-α production; CRS toxicity evaluation system using CAR-T cells)
1 | CCOC(=O)[C@H](Cc1ccccc1)NC(=O)c1cc(Cl)c(OCCN2CCN(C)CC2)c(Cl)c1O [JTE-607, (−)-ethyl N-{3,5-dichloro-2-hydroxy-4-[2-(4-methylpiperazin-1-yl)ethoxy]benzoyl}-L-phenylalaninate dihydrochloride] | 231 nM | 231 nM | 132 nM | 50.1 nM | did not affect | 413 nM | – | – | – | –
2 | C[C@]12C=CC(=O)C=C1CC[C@@H]1[C@@H]2[C@@H](O)C[C@@]2(C)[C@H]1CC[C@]2(O)C(=O)CO [PSL, Prednisolone] | – | 34.8 nM | > 30000 nM | 53 nM | suppressive effect on the killer activity of CAR-T cells in a concentration-dependent manner | > 100000 nM | 35 nM | no suppressive effect | more strongly suppressed IFN-γ production than IL-6 production | no suppressive effect
